Source: patent publication US7052909B1, “Method for activating NKT cells using PIMs” (priority 1999, dated 2006)

Experiments:
[1] = tested on: C57BL/6 mice; test: Formation of lesions of the granulomatous type after subcutaneous injection in mice; assay type: in vivo, mouse; settings: s.c., adsorbed onto Alu-Gel-S
[2] = tested on: NKT cells; test: NKT-cell recruitment at the site of injection, Vα14-Jα281 mRNA by RT-PCR and Immunoscope; assay type: in vivo, mouse; settings: C57BL/6 mice, s.c., adsorbed on Alu-Gel-S, day 7, RT-PCR, compared with Alu-Gel-S alone

CC(=O)N[C@H]1C(O)O[C@H](CO)[C@@H](O)[C@@H]1O[C@H](C)C(=O)N[C@@H](C)C(=O)N[C@H](CCC(=O)O)C(N)=O (mixture of isomers) [MDP, muramyl-dipeptide]
cell infiltrate at site of injection [1]: produced a cellular infiltrate
activity of NKT-cell recruitment (Vα14-Jα281 mRNA) [2]: without increasing the Vα14-Jα281 mRNA
